Data taken from US11779768B2, “Protein activity modification” (Impulse Dynamics NV, priority 2004, dated 2023).
Several values for one entry are separate records, joined by “and”; a condition that tells them apart may be missing. Identical values can stand only once.

Tests used:
[1] = tested on: human malignant glioma cell lines; conditions: advertised; cited from earlier work
[2] = tested on: platelet aggregation; conditions: advertised; cited from earlier work
[3] = tested on: phospholamban serine-16; assay: Phosphorylation of PLB at serine-16 in failing LV tissue homogenate with/without protein kinase inhibitor and CCM signal (Western blot); format: biochemical, dog
Protocol: (§1) The tissue homogenate was prepared in the following manner. […] The homogenate was then filtered through 4 layers of cheese cloth. The resulting homogenate was stored in ice and its protein concentration was determined by the Lowry method.
(§2) The CCM signals were delivered to the homogenate as follows. The homogenate was diluted 2 fold in homogenate buffer and subsequently aliquotted 3 ml each in assay tubes. Assay tubes were divided into 2 sets (Set A and Set B), each subset consisting of […]. CCM signals were delivered for 10″, 30″, 1′, 5′, 30′, and 60′ in one of the sets, while the other set served as time control. The reaction was stopped by adding concentrated SDS. Protein assay on all the samples were performed by Lowry method.
(§3) Additional experiments of tissue homogenate were carried out in the presence and absence of protein kinese inhibitors. The homogenate was the same as above, from dogs with heart failure. […] CAS 62996-74-1.

[4] = tested on: normal cells; conditions: advertised; cited from earlier work
[5] = tested on: phospholamban threonin-17; assay: Phosphorylation of PLB at threonine-17 in failing LV tissue homogenate with/without protein kinase inhibitor and CCM signal (Western blot); format: biochemical, dog
Protocol: as §1, §2, §3

[6] = target: protein kinase G; conditions: advertised; read-out: Inhibits protein kinase G IC50; cited from earlier work
[7] = tested on: dogs with intracoronary microembolization-induced chronic HF; assay: 3 months therapy with beta-blocker alone, beta-blocker combined with CCM, or no therapy in HF dogs: LV EDV, ESV, EF; format: in vivo, dog
Protocol: In a set of experiments, dogs with intracoronary microembolization-induced chronic HF (LV EF 30%-40%) were randomized to 3 months therapy with either BB (beta-blockers) alone (extended release metoprolol succinate, 100 mg once daily), extended release metoprolol succinate (100 mg, once daily) combined with CCM therapy, or to no therapy at all (Control). LV end-diastolic volume (EDV), end-systolic volume (ESV) and EF were measured before randomization (PRE) and after 3 months of therapy (POST). To determine “treatment effect”, the change A between PRE and POST therapy for each group was compared among the 3 study groups.

[8] = 10 sec, Control + PK Inhibitor (no CCM)
[9] = 20 sec, Control + PK Inhibitor (no CCM)
[10] = 30 sec, Control + PK Inhibitor (no CCM)
[11] = CCM signals delivered for 60 sec, PK Inhibitor + CCM

CN[C@@H]1C[C@H]2O[C@@](C)([C@@H]1OC)n1c3ccccc3c3c4c(c5c6ccccc6n2c5c31)C(=O)NC4 [STAUROSPORIN]
apoptosis in human malignant glioma cell lines [1]: Induces apoptosis
platelet aggregation induced by collagen or ADP [2]: inhibits
thrombin-induced platelet aggregation [2]: no effect
P-PLB serine-16, single sample [3, 8]: 8.0 and 9.0
P-PLB serine-16, single sample [3, 9]: 12.2 and 14.0
P-PLB serine-16, Av [3, 10]: 9.4
P-PLB serine-16, single sample [3, 10]: 6.8 and 9.7
P-PLB serine-16, single sample ([3]; CCM signals delivered for 30 sec, PK Inhibitor + CCM): 14.3 and 13.0
P-PLB serine-16, Av [3, 11]: 19.9
P-PLB serine-16, single sample [3, 11]: 22.7
serine-16 PLB phosphorylation response to CCM in presence of kinese inhibitor ([3]; HF dog LV homogenate): responded close to usual
cell cycle of normal cells (G1 checkpoint) [4]: Arrests normal cells at the G1 checkpoint
P-PLB threonin-17, single sample [5, 8]: 8.9 and 9.5
P-PLB threonin-17, Av [5, 9]: 9.0
P-PLB threonin-17, single sample [5, 10]: 8.2
P-PLB threonin-17, Av ([5]; 60 sec, Control + PK Inhibitor (no CCM)): 13.9
P-PLB threonin-17, single sample ([5]; CCM signals delivered for 10 sec, PK Inhibitor + CCM): 14.6 and 9.9 and 8.7
P-PLB threonin-17, single sample ([5]; CCM signals delivered for 20 sec, PK Inhibitor + CCM): 8.3 and 15.0
P-PLB threonin-17, Av [5, 11]: 15.0
threonin-17 PLB phosphorylation response to CCM in presence of kinese inhibitor ([5]; HF dog LV homogenate): reduced and delayed response
IC50 [6]: 8.5 nM

COCCc1ccc(OCC(O)CNC(C)C)cc1 (centres unmarked) [BB, metoprolol succinate]
Treatment effect (Δ PRE to POST) LV EF ([7]; BB 100 mg once daily combined with CCM therapy): 12±1%
LV EDV, effect of therapy ([7]; BB alone): prevented the increase
LV EF, effect of therapy ([7]; BB alone): significantly increased
LV ESV, effect of therapy ([7]; BB alone): significantly reduced
Treatment effect (Δ PRE to POST) LV EF ([7]; BB alone, 100 mg once daily): 6±1%
LV EDV, effect of therapy ([7]; BB combined with CCM): prevented the increase
LV EF, effect of therapy ([7]; BB combined with CCM): significantly increased
LV ESV, effect of therapy ([7]; BB combined with CCM): significantly reduced
